In patent publication US10329324B2 (viDA Therapeutics Inc., priority 2013, dated 2019):
Structures can show the parent of a compound that is named as a salt. Where two headings read alike, the source gives them in different places.

Tests used:
[1] = biological target: T1, human Granzyme B (hGzmB) (Homo sapiens, UniProt P10144); test: Human Granzyme B enzymatic inhibition assay (fluorogenic, kinetic); assay type: biochemical; settings: activity codes, Table 7; read-out: IC50 Activity Range
T1 construct: purchased Froelich Lab, Northshore University Health Systems Research Institute, Evanston, Ill., USA
T1 sequence (P10144 21-247): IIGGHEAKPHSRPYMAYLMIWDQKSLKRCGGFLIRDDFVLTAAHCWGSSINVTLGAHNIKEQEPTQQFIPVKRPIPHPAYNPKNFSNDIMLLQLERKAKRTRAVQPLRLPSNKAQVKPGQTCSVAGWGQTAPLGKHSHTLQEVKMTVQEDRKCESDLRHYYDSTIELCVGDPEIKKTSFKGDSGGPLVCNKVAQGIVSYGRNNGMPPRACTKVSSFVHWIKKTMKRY
Summary of the method: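 Human Granzyme B preincubated with compound for 30 min total (5 min shaking, 20 min bench, then reaction temperature). Fluorogenic substrate added and read kinetically, 25 cycles at 1-min intervals. Percent inhibition at one or two concentrations or 8–12-point 3-fold dose response from 20 uM, replicates, with IC50 by non-linear regression.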

[2] = Kinetic solubility determination in PBS; assay type: physicochemical; settings: PBS 1X pH 7.4, 2.0% DMSO, 24 hour incubation at ambient temperature; for solubility at 24 h: phosphate buffered saline (PBS 1×), 21 °C, pH 7.4, aqueous buffer, kinetic from dmso stock
Summary of the method: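 DMSO stocks were diluted into PBS (1×) pH 7.4 to 2.0% final DMSO and a maximum theoretical concentration of typically 200 μM. After 24 hour incubation at ambient temperature (20.5-21.7° C.), samples were vacuum filtered. The filtrate was quantified by chemiluminescent nitrogen detection against a nitrogen calibration curve, with background-corrected values given in μM and μg/mL.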

[3] = biological target: GzmB (Homo sapiens, UniProt P10144); test: Inhibition of fibronectin cleavage by GzmB; assay type: biochemical; settings: 20 nM granzyme B, labeled fibronectin; for inhibition at 0.62 µM: 0.62 uM inhibitor, read-out: Percent Inhibition at Inhibitor Concentration 0.62 uM; for inhibition at 5.56 µM: 5.56 uM inhibitor, read-out: Percent Inhibition at Inhibitor Concentration 5.56 uM; for inhibition at 50 µM: 50 uM inhibitor, read-out: Percent Inhibition at Inhibitor Concentration 50 uM
Chain of GzmB (P10144 21-247): as above
Method: Black, 96 well high-binding assay plates (Griener Bio-one) were treated overnight at 4° C. with 40 uL of 8 ug/mL Hilyte Fluor 488 labeled Fibronectin (Cytoskeleton, Inc). After fibronectin coating, plates were washed 3 times in buffer (20 mM Tris-HCl, pH 7.4, 20 mM NaCl) then once with granzyme B assay buffer (50 mM HEPES, pH 7.5, 0.1% CHAPS). After washing, 50 uL of granzyme B assay buffer was added to each fibronectin-coated well. In a separate non-binding 96 well assay plate 5 uL of 20× inhibitor serial dilution stocks were added to 45 uL of 2.22×GzmB mix to establish inhibition (enzyme/inhibitor mixes were all prepared in granzyme B assay buffer and were incubated first at room temperature for 20 minutes, then at 30° C. for another 10 minutes). After incubation, 50 uL of this 2× enzyme/inhibitor mix was added to the corresponding coated well to initiate fibronectin cleavage (20 nM final granzyme B concentration, 8-point inhibitor dilution series starting at 50 uM). The assay was conducted at 30° C. in the TECAN plate reader (TECAN INFINITE® M1000 Pro), which was programmed to monitor the kinetic fluorescence polarization signal (filter set Ex/Em 470 nm/527 nm) with readings taken every minute, for 1 hour. Proteolytic activity was evaluated as the rate of fluorescence enhancement in the parallel emission over the linear range of the reaction. % Inhibition values were calculated from assay controls and the resulting date is shown in Table 8.

[4] = read-out: Solubility in aqueous PBS Buffer (1X, pH 7.4)
[5] = read-out: Solubility in aqueous PBS Buffer (1X, pH 7.4), ug/mL

IC50 [1] | solubility at 24 h [2, 4] | solubility at 24 h [2, 5] | inhibition at 0.62 µM [3] | inhibition at 5.56 µM [3] | inhibition at 50 µM [3] | Solubility in aqueous PBS Buffer (1X, pH 7.4), uM [2] | Solubility in aqueous PBS Buffer (1X, pH 7.4), ug/mL [2] | SMILES
< 100 nM | 53 µM | 31 µg/mL | 57% | 96% | 102% |  |  | CC[C@H](C)[C@H](NC(=O)Cc1csc2ccccc12)C(=O)NCC(=O)N1c2ccccc2C[C@H]1C(=O)NCc1nn[nH]n1 [Example A27, (2S)-1-{2-[(2S,3S)-2-[2-(1-Benzothiophen-3-Yl)Acetamido]-3-Methylpentanamido]Acetyl}-N-(2H-1,2,3,4-Tetrazol-5-Ylmethyl)-2,3-Dihydro-1H-Indole-2-Carboxamide]
< 100 nM | > 750 µM | > 393 µg/mL | 45% | 79% | 98% |  |  | CC[C@H](C)[C@H](NC(=O)Cc1nn[nH]n1)C(=O)NCC(=O)N1c2ccccc2C[C@H]1C(=O)NCc1nn[nH]n1 [Example A28, (2S)-1-{2-[(2S,3S)-3-Methyl-2-[2-(2H-1,2,3,4-Tetrazol-5-Yl)Acetamido]Pentanamido]Acetyl}-N-(2H-1,2,3,4-Tetrazol-5-Ylmethyl)-2,3-Dihydro-1H-Indole-2-Carboxamide]
100 to 1000 nM | > 750 µM | > 438 µg/mL |  |  |  |  |  | CC[C@H](C)[C@H](NC(=O)Cc1ccccc1)C(=O)NCC(=O)N1c2ccc(N)cc2C[C@H]1C(=O)NCc1nn[nH]n1 [Example C32, (2S)-5-Amino-1-{2-[(2S,3S)-3-Methyl-2-(2-Phenylacetamido)Pentanamido]Acetyl}-N-(2H-1,2,3,4-Tetrazol-5-Ylmethyl)-2,3-Dihydro-1H-Indole-2-Carboxamide Hydrochloride]
100 to 1000 nM | > 150 µM | > 80 µg/mL |  |  |  |  |  | CC[C@H](C)[C@H](NC(=O)Cc1ccncc1)C(=O)NCC(=O)N1c2ccccc2C[C@H]1C(=O)NCc1nn[nH]n1 [Example A2, (2S)-1-{2-[(2S,3S)-3-Methyl-2-[2-(Pyridin-4-Yl)Acetamido]Pentanamido]Acetyl}-N-(2H-1,2,3,4-Tetrazol-5-Ylmethyl)-2,3-Dihydro-1H-Indole-2-Carboxamide]
< 100 nM |  |  |  |  |  | 685 uM | 361 ug/mL | CC[C@H](C)[C@H](NC(=O)C1CC1C(=O)O)C(=O)NCC(=O)N1c2ccccc2C[C@H]1C(=O)NCc1nn[nH]n1 (single isomer, unassigned) [Example A26-2]
100 to 1000 nM | > 750 µM | > 405 µg/mL |  |  |  |  |  | O=C(O)CCC(=O)N[C@H](C(=O)NCC(=O)N1c2ccccc2C[C@H]1C(=O)NCc1nn[nH]n1)c1cccs1 [Example C24, 3-{[(R)-({2-Oxo-2-[(2S)-2-[(2H-1,2,3,4-Tetrazol-5-Ylmethyl)Carbamoyl]-2,3-Dihydro-1H-Indol-1-Yl]Ethyl}Carbamoyl)(Thiophen-2-Yl)Methyl]Carbamoyl}Propanoic Acid]
< 100 nM | > 750 µM | > 407 µg/mL |  |  |  |  |  | CC[C@H](C)[C@H](NC(=O)C(C)(C)CC(=O)O)C(=O)NCC(=O)N1c2ccccc2C[C@H]1C(=O)NCc1nn[nH]n1 [Example A56, 3,3-Dimethyl-3-{[(1S,2S)-2-Methyl-1-({2-Oxo-2-[(2S)-2-[(2H-1,2,3,4-Tetrazol-5-Ylmethyl)Carbamoyl]-2,3-Dihydro-1H-Indol-1-Yl]Ethyl}Carbamoyl)Butyl]Carbamoyl}Propanoic Acid]
< 100 nM | > 750 µM | > 386 µg/mL | 11% | 52% | 82% |  |  | CC[C@H](C)[C@H](NC(=O)CCC(=O)O)C(=O)NCC(=O)N1c2ccccc2C[C@H]1C(=O)NCc1nn[nH]n1 [Example A13, 3-{[(1S,2S)-2-Methyl-1-({2-Oxo-2-[(2S)-2-[(2H-1,2,3,4-Tetrazol-5-Ylmethyl)Carbamoyl]-2,3-Dihydro-1H-Indol-1-Yl]Ethyl}Carbamoyl)Butyl]Carbamoyl}Propanoic Acid]
1000 to 10000 nM | 124 µM | 67 µg/mL |  |  |  |  |  | CC[C@H](C)[C@H](NC(=O)CCCN)C(=O)NCC(=O)N1c2ccccc2C[C@H]1C(=O)NCc1nn[nH]n1 [Example A7, (2S)-1-{2-[(2S,3S)-2-(4-Aminobutanamido-3-Methylpentanamido]Acetyl}-N-(2H-1,2,3,4-Tetrazol-5-Ylmethyl)-2,3-Dihydro-1H-Indole-2-Carboxamide Hydrochloride]
